pIC50: −log10 of the molar value.
Target: EGFR (UniProt P00533)
Sequence (P00533 whole entry, looked up): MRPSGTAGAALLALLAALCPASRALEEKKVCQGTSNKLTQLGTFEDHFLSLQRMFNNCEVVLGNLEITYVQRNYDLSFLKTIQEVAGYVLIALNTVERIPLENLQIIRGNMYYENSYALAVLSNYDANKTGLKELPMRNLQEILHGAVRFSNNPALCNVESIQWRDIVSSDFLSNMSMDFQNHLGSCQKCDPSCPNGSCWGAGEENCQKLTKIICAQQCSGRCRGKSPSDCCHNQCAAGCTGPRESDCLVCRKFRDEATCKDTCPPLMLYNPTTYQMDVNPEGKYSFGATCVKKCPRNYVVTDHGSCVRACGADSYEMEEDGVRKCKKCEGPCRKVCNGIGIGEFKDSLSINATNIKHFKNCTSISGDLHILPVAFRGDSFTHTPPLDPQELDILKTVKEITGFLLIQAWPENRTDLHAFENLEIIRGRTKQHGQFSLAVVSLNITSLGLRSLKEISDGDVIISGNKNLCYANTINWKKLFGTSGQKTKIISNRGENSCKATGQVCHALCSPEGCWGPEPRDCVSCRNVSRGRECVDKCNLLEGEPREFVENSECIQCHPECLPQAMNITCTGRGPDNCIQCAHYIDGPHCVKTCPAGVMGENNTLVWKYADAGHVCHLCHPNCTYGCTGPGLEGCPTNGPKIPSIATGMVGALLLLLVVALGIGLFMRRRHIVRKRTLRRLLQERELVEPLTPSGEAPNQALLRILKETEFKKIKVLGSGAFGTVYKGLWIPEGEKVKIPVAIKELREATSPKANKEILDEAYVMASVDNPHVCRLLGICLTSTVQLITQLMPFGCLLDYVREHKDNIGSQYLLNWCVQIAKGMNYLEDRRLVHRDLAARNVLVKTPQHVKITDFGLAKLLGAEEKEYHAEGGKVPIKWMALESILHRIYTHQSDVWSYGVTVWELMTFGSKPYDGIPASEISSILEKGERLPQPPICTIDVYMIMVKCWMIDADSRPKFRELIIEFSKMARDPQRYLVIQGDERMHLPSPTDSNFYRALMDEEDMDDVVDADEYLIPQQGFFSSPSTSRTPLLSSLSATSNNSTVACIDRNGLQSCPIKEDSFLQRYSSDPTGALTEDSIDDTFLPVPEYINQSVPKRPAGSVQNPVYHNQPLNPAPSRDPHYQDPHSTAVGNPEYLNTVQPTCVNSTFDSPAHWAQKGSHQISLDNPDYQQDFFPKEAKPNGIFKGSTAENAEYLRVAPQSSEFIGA

| pIC50 | Structure (SMILES) |
| --- | --- |
| > 7.30 | COc1cc2c(Nc3ccc(F)c(Cl)c3F)ncnc2cc1OC[C@H]1CN2CCOC[C@H]2CO1 |
| > 7.30 | COc1cc2c(Nc3ccc(Cl)c(Cl)c3F)ncnc2cc1OC[C@@H]1CN2CCOC[C@H]2CO1 |
| > 7.30 | COC(=O)CCN1CCOC(COc2cc3ncnc(Nc4ccc(Cl)c(Cl)c4)c3cc2OC)C1 (configuration not stated) |
| > 7.30 | COc1cc2c(Nc3ccc(Br)c(Cl)c3F)ncnc2cc1OC[C@H]1CN2CCOC[C@H]2CO1 |
| > 7.30 | COc1cc2c(Nc3ccc(Cl)c(Cl)c3)ncnc2cc1OCC1CC1 |
| > 7.30 | COc1cc2c(Nc3ccc(Cl)cc3F)ncnc2cc1OCC1CN(C)CCO1 (configuration not stated) |
| > 7.30 | COc1cc2c(Nc3ccc(Cl)c(Cl)c3)ncnc2cc1OCC1CN(CCCC#N)CCO1 (configuration not stated) |
| > 7.30 | COc1cc2c(Nc3ccc(Br)c(Cl)c3F)ncnc2cc1OC[C@@H]1CN2CCOC[C@H]2CO1 |
| > 7.30 | COc1cc2c(Nc3ccc(Cl)c(Cl)c3F)ncnc2cc1OC[C@@H]1CN2CCC[C@H]2CO1 |
| > 7.30 | COc1cc2c(Nc3ccc(Br)c(C)c3)ncnc2cc1OCC1CN(C)CCO1 (configuration not stated) |
| > 7.30 | COc1cc2c(Nc3cc(Cl)c(Br)cc3F)ncnc2cc1O[C@@H]1CO[C@@H]2[C@H]1OC[C@H]2F |
| > 7.30 | COc1cc2c(Nc3ccc(Br)c(Cl)c3F)ncnc2cc1OC[C@@H]1CN2CCC[C@H]2CO1 |
| > 7.30 | CCC(CC)CN1CCOC(COc2cc3ncnc(Nc4ccc(Cl)c(Cl)c4)c3cc2OC)C1 (configuration not stated) |
| > 7.30 | CCCCCCN1CCOC(COc2cc3ncnc(Nc4ccc(Cl)c(Cl)c4)c3cc2OC)C1 (configuration not stated) |
| > 7.30 | COc1cc2c(Nc3ccc(Br)c(Cl)c3Cl)ncnc2cc1OCC1CN(C)C(C)(C)CO1 (configuration not stated) |
| > 7.30 | CCN1CCOC(COc2cc3ncnc(Nc4ccc(Cl)c(Cl)c4)c3cc2OC)C1 (configuration not stated) |
| > 7.30 | COc1cc2c(Nc3ccc(Cl)c(Cl)c3)ncnc2cc1OCCC1CN(C)CC(C)(C)O1 (configuration not stated) |
| > 7.30 | COc1cc2c(Nc3ccc(Br)c(Cl)c3F)ncnc2cc1OCC1CN(C)CCO1 (configuration not stated) |
| > 7.30 | CCC#CCN1CCOC(COc2cc3ncnc(Nc4ccc(Cl)c(Cl)c4)c3cc2OC)C1 (configuration not stated) |
| > 7.30 | COc1cc2c(Nc3ccc(Cl)c(Cl)c3)ncnc2cc1OCC1COCCN1C (configuration not stated) |
| > 7.30 | COc1cc2c(Nc3ccc(Cl)c(Cl)c3)ncnc2cc1OCC1CN(CCC(C)C)CCCO1 (configuration not stated) |

| pIC50 | Structure (SMILES) |
| --- | --- |
| > 7.30 | COc1cc2c(Nc3cc(Cl)c(Br)cc3F)ncnc2cc1OCC1CN(C)C(C)(C)CO1 (configuration not stated) |
| > 7.30 | COc1cc2c(Nc3ccc(Cl)c(Cl)c3)ncnc2cc1OC[C@H]1CN2CCC[C@H]2CO1 |
| > 7.30 | COc1cc2c(Nc3ccc(F)c(Cl)c3F)ncnc2cc1OC[C@@H]1CN2CCOC[C@H]2CO1 |
| > 7.30 | COc1cc2c(Nc3ccc(Br)c(Cl)c3)ncnc2cc1OC1CCN(C)C1 (configuration not stated) |
| > 7.30 | COc1cc2c(Nc3ccc(Br)c(Cl)c3F)ncnc2cc1OC[C@@H]1CN(C)CC(=O)N1 |
| > 7.30 | COc1cc2c(Nc3ccc(Br)c(Cl)c3)ncnc2cc1OCC1CN(C)CCO1 (configuration not stated) |
| > 7.30 | COc1cc2c(Nc3ccc(Cl)c(Cl)c3)ncnc2cc1OCC1CN(C(C)C)CCCO1 (configuration not stated) |
| > 7.30 | COc1cc2c(Nc3ccc(Cl)c(Cl)c3F)ncnc2cc1OCC1CN(C)CCO1 (configuration not stated) |
| > 7.30 | COc1cc2c(Nc3cc(Cl)c(Cl)cc3F)ncnc2cc1OCC1CN(C)CCO1 (configuration not stated) |
| > 7.30 | COc1cc2c(Nc3cc(Cl)c(Cl)cc3F)ncnc2cc1OC[C@@H]1CN2CCC[C@H]2CO1 |
| > 7.30 | COc1cc2c(Nc3cccc(Br)c3C)ncnc2cc1OCC1CN(C)CCO1 (configuration not stated) |
| > 7.30 | COc1cc2c(Nc3cccc(Br)c3Cl)ncnc2cc1OCC1CN(C)CCO1 (configuration not stated) |
| > 7.30 | C=CCN1CCOC(COc2cc3ncnc(Nc4ccc(Cl)c(Cl)c4)c3cc2OC)C1 (configuration not stated) |
| > 7.30 | COc1cc2c(Nc3cc(F)c(Br)c(F)c3)ncnc2cc1OCC1CN(C)CCO1 (configuration not stated) |
| > 7.30 | COc1cc2c(Nc3cc(Cl)c(Br)cc3F)ncnc2cc1OC[C@@H]1CN2CCOC[C@H]2CO1 |
| > 7.30 | COc1cc2c(Nc3ccc(Cl)c(Br)c3)ncnc2cc1OCC1CN(C)CCO1 (configuration not stated) |
| > 7.30 | COCCN1CCCOC(COc2cc3ncnc(Nc4ccc(Cl)c(Cl)c4)c3cc2OC)C1 (configuration not stated) |
| > 7.30 | CCC(=O)N1CCOC(COc2cc3ncnc(Nc4ccc(Cl)c(Cl)c4)c3cc2OC)C1 (configuration not stated) |
| > 7.30 | C#CCN1CCOC(COc2cc3ncnc(Nc4ccc(Cl)c(Cl)c4)c3cc2OC)C1 (configuration not stated) |
| > 7.30 | COc1cc2c(Nc3ccc(Cl)c(Cl)c3)ncnc2cc1OCC1CN(Cc2ccc(F)cc2)CCO1 (configuration not stated) |

Further lines, the molecule ahead of its results:

| Structure (SMILES) | pIC50 |
| --- | --- |
| COc1cc2c(Nc3ccccc3F)ncnc2cc1O[C@@H]1CO[C@@H]2[C@H]1OC[C@H]2F | > 7.30 |
| COc1cc2c(Nc3ccc(Cl)c(Cl)c3)ncnc2cc1OCc1nc(-c2ccc(O)c(C(N)=O)c2)cs1 | > 7.30 |
| COc1cc2c(Nc3ccc(Cl)c(Cl)c3)ncnc2cc1OC[C@@H]1O[C@@H](OC)[C@@H](O)[C@@H](O)[C@H]1O | > 7.30 |
| COc1cc2c(Nc3ccc(Cl)c(Cl)c3)ncnc2cc1OCc1nc(N2CCN(C(=O)OC(C)(C)C)CC2)no1 | > 7.30 |
| CCCCCCCCN1CCOC(COc2cc3ncnc(Nc4ccc(Cl)c(Cl)c4)c3cc2OC)C1 (configuration not stated) | > 7.30 |
| CCN1CCCC(c2nc(COc3cc4ncnc(Nc5ccc(Cl)c(Cl)c5)c4cc3OC)no2)C1 (configuration not stated) | > 7.30 |
| COc1cc2c(Nc3ccc(Cl)c(Cl)c3)ncnc2cc1OCc1csc(-c2ccc(C(F)(F)F)cc2)n1 | 6.00 to 7.30 |
| COc1cc2c(Nc3ccc(Br)c(Cl)c3Cl)ncnc2cc1O[C@H]1CO[C@H]2[C@@H]1OC[C@@H]2OC | > 7.30 |
| CCN1CCN(c2nc(COc3cc4ncnc(Nc5ccc(Cl)c(Cl)c5)c4cc3OC)cs2)CC1 | > 7.30 |
| COc1cc2c(Nc3cccc(Cl)c3F)ncnc2cc1O[C@H]1CO[C@@H]2[C@H]1OC[C@@H]2F | > 7.30 |
| COc1cc2c(Nc3ccc(Cl)c(Cl)c3)ncnc2cc1OCc1csc(C2CCCCN2C)n1 (configuration not stated) | > 7.30 |
| COc1cc2c(Nc3ccc(Cl)c(Cl)c3)ncnc2cc1OC1C[C@@H]2CN(C)C[C@@H]2C1 (some centres not stated) | > 7.30 |
| COc1cc2c(Nc3ccc(Cl)c(Cl)c3)ncnc2cc1OCc1nc(-c2ccc(C(C)(C)C)cc2)no1 | 6.00 to 7.30 |
| COc1cc2c(Nc3cc(F)ccc3F)ncnc2cc1O[C@@H]1CO[C@@H]2[C@H]1OC[C@H]2F | > 7.30 |
| COc1cc2c(Nc3ccc(Br)c(Cl)c3F)ncnc2cc1O[C@@H]1CO[C@@H]2[C@H]1OC[C@H]2F | > 7.30 |
| COc1cc2c(Nc3ccc(Cl)c(Cl)c3)ncnc2cc1OCC1CN(CCC2CCCCC2)CCO1 (configuration not stated) | > 7.30 |
| COC(=O)CCC(=O)N1CCOC(COc2cc3ncnc(Nc4ccc(Cl)c(Cl)c4)c3cc2OC)C1 (configuration not stated) | > 7.30 |
| COc1cc2c(Nc3ccc(Cl)c(Cl)c3)ncnc2cc1OCC1CN(C2CCOCC2)CCO1 (configuration not stated) | > 7.30 |
| COc1cc2c(Nc3ccc(Cl)c(Cl)c3)ncnc2cc1OCC1CN(C(=O)Cc2ccc(Cl)cc2)CCO1 (configuration not stated) | > 7.30 |
| COc1cc2c(Nc3ccc(Cl)c(Cl)c3)ncnc2cc1OCC1CN(S(=O)(=O)CCCCl)CCO1 (configuration not stated) | > 7.30 |
| COc1cc2c(Nc3ccc(Cl)c(Cl)c3)ncnc2cc1OCc1noc(C2CCCN2C)n1 (configuration not stated) | > 7.30 |
| COc1cc2c(Nc3ccc(Cl)c(Cl)c3)ncnc2cc1OCC1CCCCC1 | > 7.30 |
| COc1cc2c(Nc3ccc(Cl)c(Cl)c3)ncnc2cc1OCc1csc(C2CCCN(C)C2)n1 (configuration not stated) | > 7.30 |
| CCCCCCCN1CCOC(COc2cc3ncnc(Nc4ccc(Cl)c(Cl)c4)c3cc2OC)C1 (configuration not stated) | > 7.30 |
| COc1cc2c(Nc3ccc(F)cc3Cl)ncnc2cc1O[C@@H]1CO[C@@H]2[C@H]1OC[C@H]2F | > 7.30 |
| COc1cc2c(Nc3ccc(Br)c(Cl)c3)ncnc2cc1O[C@H]1CO[C@@H]2[C@H]1OC[C@@H]2N1CCCC1 | > 7.30 |

| Structure (SMILES) | pIC50 |
| --- | --- |
| COc1cc2c(Nc3ccc(Br)c(Cl)c3Cl)ncnc2cc1O[C@@H]1CO[C@@H]2[C@H]1OC[C@H]2F | > 7.30 |
| COc1cc2c(Nc3ccc(Cl)c(Cl)c3)ncnc2cc1OCc1nc([C@@H]2CCCN2)no1 | > 7.30 |
| COc1cc2c(Nc3ccc(Cl)c(Cl)c3)ncnc2cc1OCc1nc(CN2CCOCC2)cs1 | > 7.30 |
| COc1cc2c(Nc3ccc(Br)cc3Cl)ncnc2cc1O[C@@H]1CO[C@@H]2[C@H]1OC[C@H]2F | > 7.30 |
| COc1cc2c(Nc3ccc(Cl)c(Cl)c3)ncnc2cc1OCC1CN(CC2CCCCO2)CCO1 (configuration not stated) | > 7.30 |
| COc1cc2c(Nc3ccc(F)c(C(F)(F)F)c3)ncnc2cc1O[C@@H]1CO[C@@H]2[C@H]1OC[C@H]2F | > 7.30 |
| COc1cc2c(Nc3ccc(Cl)c(Cl)c3)ncnc2cc1OCC1CCC1 | > 7.30 |
| COc1cc2c(Nc3ccc(Cl)c(Cl)c3)ncnc2cc1OCc1nc(N2CCNCC2)no1 | > 7.30 |
| COc1cc2c(Nc3ccc(Cl)c(Cl)c3)ncnc2cc1OCc1noc(C2CCCCN2C(=O)OC(C)(C)C)n1 (configuration not stated) | > 7.30 |
| COc1cc2c(Nc3ccc(Cl)c(Cl)c3F)ncnc2cc1O[C@H]1CO[C@H]2[C@@H]1OC[C@@H]2OC | > 7.30 |
| COc1cc2c(Nc3ccc(Cl)c(Cl)c3)ncnc2cc1OCCN1CCOCC1 | > 7.30 |
| COc1cc2c(Nc3cc(C(F)(F)F)ccc3Br)ncnc2cc1O[C@@H]1CO[C@@H]2[C@H]1OC[C@H]2F | > 7.30 |
| COc1cc2c(Nc3ccc(Cl)c(Cl)c3)ncnc2cc1OCc1csc(N2CCOCC2)n1 | > 7.30 |
| COc1cc2c(Nc3ccc(Cl)c(Cl)c3)ncnc2cc1OCc1cc(F)cc2c1OCOC2 | > 7.30 |
| COc1cc2c(Nc3cccc(Br)c3)ncnc2cc1O[C@@H]1CO[C@@H]2[C@H]1OC[C@H]2F | > 7.30 |
| COc1cc2c(Nc3ccc(Cl)c(Cl)c3)ncnc2cc1OCC1CN(C(=O)CC(=O)O)CCO1 (configuration not stated) | > 7.30 |
| COc1cc2c(Nc3ccc(Cl)c(Cl)c3)ncnc2cc1OCC1CN(CCCc2ccccc2)CCO1 (configuration not stated) | > 7.30 |
| COc1cc2c(Nc3ccc(Cl)c(Cl)c3)ncnc2cc1OCc1csc(N2CCN(C)CC2)n1 | > 7.30 |
| COc1cc2c(Nc3cc(Br)cc(C(F)(F)F)c3)ncnc2cc1O[C@@H]1CO[C@@H]2[C@H]1OC[C@H]2F | > 7.30 |
| C=CCCCCCCN1CCOC(COc2cc3ncnc(Nc4ccc(Cl)c(Cl)c4)c3cc2OC)C1 (configuration not stated) | > 7.30 |
| COc1cc2c(Nc3ccc(Br)cc3)ncnc2cc1O[C@@H]1CO[C@@H]2[C@H]1OC[C@H]2F | > 7.30 |
| CN1CCOC(COc2cc3ncnc(Nc4ccc(Cl)c(Cl)c4)c3cc2O)C1 (configuration not stated) | > 7.30 |
| COc1cc2c(Nc3ccc(Br)cc3F)ncnc2cc1OCC1CCN(C(N)=NC#N)CC1 | > 7.30 |
| COc1cc2c(Nc3ccc(Cl)c(Cl)c3)ncnc2cc1OC1CO[C@@H]2[C@@H](OC)CO[C@H]12 (some centres not stated) | > 7.30 |
| COc1cc2c(Nc3cccc(Cl)c3C)ncnc2cc1O[C@H]1CO[C@H]2[C@@H]1OC[C@@H]2OC | > 7.30 |

Source: the Kinase Knowledgebase extract (Sharma et al. 2016)
